Data reported in the NIST ThermoML archive (doi:10.1016/j.jct.2014.07.013).
± gives the expanded uncertainty stated by the source.

Settings: Liquid, Closed cell (Static) method

| SMILES | vapor or sublimation pressure (258.15 K) | vapor or sublimation pressure (263.15 K) | vapor or sublimation pressure (273.15 K) | vapor or sublimation pressure (283.15 K) |
| --- | --- | --- | --- | --- |
| FC(F)(F)I [trifluoroiodomethane] | 133 ± 1 kPa | 160.4 ± 1 kPa | 228.4 ± 1.1 kPa | 316.5 ± 1.1 kPa |
| CCC [propane] | 291.6 ± 1.1 kPa | 345.3 ± 1.1 kPa | 474.5 ± 1.2 kPa | 636.8 ± 1.4 kPa |
